From PubChem BioAssay AID1259420 (Broad Institute, 2018)
Several values for one entry are separate records, joined by “and”; a condition that tells them apart may be missing. Equal values may be shown once. Results filed as inconclusive are left out. Activity calls are given as the source filed them. No rule for the calls is given here.

These compounds were tested on Toxoplasma gondii growth in host cells, no IFN-gamma (assay: compound activity on host-cell Toxoplasma growth – dose response (AID 1259420);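 also: host cells were HeLa; final incubation lasted 72 hours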).
In the case of COc1cccc(-c2ccc3c(c2)[C@H]2[C@H](CCN2S(=O)(=O)c2ccccc2F)[C@@H](CO)N3)c1, the AC50 is reported as 11.5 µM and 6.32 µM. C[C@H](CO)N1C[C@H](C)[C@H](CN(C)C(=O)c2cc(Cl)cc(Cl)c2)OCc2ccccc2-c2c(n(C)c3ccccc23)C1=O was tested, and the AC50 was 15.3 µM. With Cc1ccccc1C(=O)N1CCC(N2CCOCC2)CC1C(=O)O (centres undefined) the AC50 was > 39 µM (inactive). CC(C)CC#Cc1ccc([C@@H]2[C@@H](CO)N3C(=O)CN(C(=O)c4cccc(F)c4)C[C@@H]23)cc1 was tested, and the AC50 was 16.4 µM and 13.5 µM. With COCCN1CCN(S(=O)(=O)c2ccccc2)Cc2cccnc21 the AC50 was 31.1 µM. With N#Cc1cccc(-c2ccc3c(c2)[C@H]2[C@H](CCN2C(=O)c2ccccc2F)[C@@H](CO)N3)c1 the AC50 was 15.1 µM. C/C=C/c1ccc(C2[C@H]3CNC[C@@H]2N3C(=O)NC2CCCCC2)cc1 (some centres undefined) showed an AC50 of 13.3 µM. O=C(Nc1ccccc1F)N1C[C@@H]2N[C@H](C1)C2c1ccc(/C=C/c2ccccc2)cc1 (some centres undefined) was tested, and the AC50 was 18.6 µM. Work on O=c1c(O)c(-c2ccc(O)c(O)c2)oc2cc(O)cc(O)c12 yielded an AC50 of 15.8 µM. For CCn1c(C2CCCN(C(=O)CCN3CCCCCC3=O)C2)nn(C)c1=O (centres undefined), the AC50 was 29.4 µM. Cc1cnc(N2CCC3(CCC(CC(=O)N4CC=CC4)CC3)CC2)nc1 was tested, and the AC50 was 22.6 µM. C/C=C/c1ccc(C2[C@@H]3CN(S(=O)(=O)c4ccccc4F)C[C@H]2N3)cc1 (some centres undefined) showed an AC50 of 20.7 µM. With COCC(=O)N1[C@@H](C#N)[C@H](c2ccc(C#CCC3CCCC3)cc2)[C@@H]1CO the AC50 was 18.7 µM. COc1cccc(S(=O)(=O)N2CC[C@@H]3[C@H](CO)Nc4ccc(C5=CCCCC5)cc4[C@@H]32)c1 gave an AC50 of 14.1 µM. In the case of COc1ccccc1-c1nc(CN2CCc3c(sc4c3CCCC4)C2c2ccccc2)c(C)o1 (centres undefined), the AC50 is reported as 22.4 µM. CC(=O)O.CC(=O)O.[Cl][Pt+2][Cl].[NH-]C1CCCCC1.[NH2-] was tested, and the AC50 was 19.4 µM. Work on COc1ccccc1NC(=O)N1C[C@H](O)COC[C@@H]2O[C@H](CC(=O)N3CCC(Cc4ccccc4)CC3)CC[C@H]21 yielded an AC50 of 37.7 µM. COc1cccc(-c2nc3c(s2)CN(S(=O)(=O)c2ccc(C)cc2)CC3)c1 was tested, and the AC50 was 34 µM. Compound COc1ccc(-c2nc(Nc3ccc(CN4CCCCC4)cc3)c3ccccc3n2)cc1 has an AC50 of 18.5 µM. For c1ccc2c(Oc3nc(Nc4ccc(N5CCOCC5)cc4)c4ncn(C5CCCCC5)c4n3)cccc2c1, the AC50 was 12.7 µM. For Cc1cccc(S(=O)(=O)N2CC[C@@H]3[C@H](CO)Nc4ccc(-c5ccccc5F)cc4[C@@H]32)c1, the AC50 was 17.2 µM. COc1ccccc1CN1CC[C@@H]2[C@H](CO)Nc3ccc(-c4cccc(C(=O)N(C)C)c4)cc3[C@@H]21 gave an AC50 of 13.6 µM. Cc1cccc(-c2ccc(C3[C@@H]4CN(Cc5cccc(F)c5)C[C@H]3N4)cc2)c1 (some centres undefined) gave an AC50 of 19.4 µM. CC(C)C#Cc1ccc([C@@H]2[C@@H](CO)N(C(=O)c3cccc(F)c3)[C@H]2C#N)cc1 was tested, and the AC50 was > 20 µM (inactive). N#Cc1ccc(-c2ccc3c(c2)[C@@H]2[C@@H](CCN2C(=O)C2CCCCC2)[C@H](CO)N3)cc1 was tested, and the AC50 was 18 µM. Work on N#Cc1ccc(-c2ccc3c(c2)[C@H]2[C@H](CCN2C(=O)C2CCCCC2)[C@H](CO)N3)cc1 yielded an AC50 of 16.9 µM. With Cc1ccccc1-c1ccc(C2[C@H]3CNC[C@@H]2N3Cc2ccc3c(c2)OCO3)cc1 (some centres undefined) the AC50 was > 20 µM (inactive). For CN1C(=O)CC2C1CCN2S(=O)(=O)Cc1ccccc1 (centres undefined), the AC50 was > 39 µM (inactive). For O=C(C[C@H]1CC[C@H]2[C@@H](COC[C@@H](O)CN2S(=O)(=O)c2ccccc2F)O1)N1CCC(Cc2ccccc2)CC1, the AC50 was > 20 µM (inactive). CC(C)NC(=O)N1CC(=O)N2[C@H](C1)[C@@H](c1ccc(/C=C/c3ccccc3)cc1)[C@@H]2CO gave an AC50 of 17.9 µM. CN1[C@@H]2c3ccc(/C=C/c4ccccc4)c(=O)n3C[C@H]1[C@H](CO)[C@H]2C(=O)NC1Cc2ccccc2C1 was tested, and the AC50 was > 39 µM (inactive). COc1ccc(-c2nc(Nc3ccc(CN4CCC(C)CC4)cc3)c3ccccc3n2)cc1 was tested, and the AC50 was 12.6 µM. For O=C(Nc1cccc(F)c1)N1CCCCN2[C@@H](CO)[C@H](c3ccc(C#Cc4cccnc4)cc3)[C@@H]2C1, the AC50 was 3.04 µM. CS(=O)(=O)N1CC(=O)N2[C@@H](CO)[C@H](c3ccc(C#Cc4ccc(F)cc4)cc3)[C@@H]2C1 gave an AC50 of 28 µM. CCCCN(C)C(=O)c1cnc(-c2noc3cc(NCC4CC4)ccc23)s1 was tested, and the AC50 was 20.4 µM. C[C@@H]1CN(Cc2ccc(F)cc2)CCN1C(=O)COc1ccc(Cl)cc1NC(N)=O was tested, and the AC50 was > 39 µM (inactive). CN(C)C(=O)c1ccc(-c2ccc3c(c2)[C@@H]2[C@@H](CCN2C(=O)C2CCCC2)[C@H](CO)N3C)cc1 showed an AC50 of 10.9 µM. CCCNC(=O)N1[C@H](C#N)[C@H](c2ccc(-c3ccccc3F)cc2)[C@H]1CO showed an AC50 of 11.3 µM. COCC#Cc1ccc([C@@H]2[C@H]3CN(C(=O)C4CCCCC4)CC(=O)N3[C@H]2CO)cc1 was tested, and the AC50 was > 39 µM (inactive). N#C[C@H]1[C@@H](c2ccc(-c3cccc(F)c3)cc2)[C@@H](CO)N1C(=O)NC1CCCC1 was tested, and the AC50 was > 39 µM (inactive). For COCCN1CCc2c(cnc(-c3cccnc3)c2C(=O)O)C1, the AC50 was > 39 µM (inactive). With COc1cccc(S(=O)(=O)N2CCCCN3[C@H](C2)[C@H](c2ccc(C#CCC(C)C)cc2)[C@@H]3CO)c1 the AC50 was 11.9 µM and 15.5 µM. In the case of Cc1ccc2c(c1)c(Cn1cc(-c3sccc3C)nn1)nn2C, the AC50 is reported as 31.1 µM and 25.4 µM. Work on CCCNC(=O)N1CC(=O)N2[C@@H](CO)[C@@H](c3ccc(C#Cc4cccc(OC)c4)cc3)[C@@H]2C1 yielded an AC50 of 31.2 µM. For Cc1sc2ncnc(Oc3ccc(OCc4ccccc4)cc3)c2c1C, the AC50 was 7.16 µM and 9.76 µM. For COc1cccc(S(=O)(=O)N2CCCCN3[C@@H](CO)[C@@H](c4ccc(C#CCC(C)C)cc4)[C@@H]3C2)c1, the AC50 was 12.1 µM and 10.1 µM. For C/C=C/c1ccc([C@H]2[C@@H](CO)N3CCCCN(S(=O)(=O)c4ccc(OC)cc4)C[C@@H]23)cc1, the AC50 was 32.2 µM. Cn1cccc1C(=O)N1CCC2(CC1)CN(CC1CC1)C(=O)CO2 was tested, and the AC50 was 36.8 µM. With CCCC(C)c1c(-c2ccccc2)ncn1Cc1cnc(C)cn1 (centres undefined) the AC50 was 36.1 µM. In the case of CC(C)CC#Cc1ccc([C@@H]2[C@@H](CO)N3C(=O)CN(C(=O)Nc4cc(F)ccc4F)C[C@@H]23)cc1, the AC50 is reported as 17.1 µM. In the case of CC(C)Oc1ccc(NC(=O)c2nc3c(n2C(C)C)CCN(C(=O)c2ccccc2)C3)cc1, the AC50 is reported as 31.9 µM. In the case of OC[C@H]1[C@@H](c2ccc(C#Cc3ccccc3F)cc2)[C@@H]2CN(CC3CCOCC3)CCCCN12, the AC50 is reported as 14.8 µM. For O=C(C[C@@H]1CC[C@@H]2[C@H](COC[C@@H](O)CN2Cc2ccc(Oc3ccccc3)cc2)O1)N1CCN(c2ccccc2)CC1, the AC50 was 16.5 µM. With Cc1cccc(-c2ccc([C@H]3[C@@H](CO)N4CCCCN(S(=O)(=O)c5ccccc5F)C[C@H]34)cc2)c1 the AC50 was 16.4 µM and 19.5 µM.
